Key:
Homo sapiens [1] = species on record: Homo sapiens; assay: Concentration required to inhibit production of PGE-2 from whole blood stimulated with A-23187; type: functional, organism-based
Homo sapiens [2] = species on record: Homo sapiens; assay: Concentration required to inhibit production of LDH from whole blood stimulated with A-23187; type: functional, organism-based
THP-1 [3] = assay: Concentration required to inhibit production of arachidonic acid from THP-1 cells stimulated with A-23187; type: functional, cell-based; details: Homo sapiens
Homo sapiens [4] = species on record: Homo sapiens; assay: Concentration required to inhibit production of LTB4 from whole blood stimulated with A-23187; type: functional, organism-based
THP-1 [5] = assay: Concentration required to inhibit production of LTC4 from THP-1 cells stimulated with A-23187; type: functional, cell-based; details: Homo sapiens
Homo sapiens [6] = species on record: Homo sapiens; assay: Concentration required to inhibit production of arachidonic acid from whole blood stimulated with A-23187; type: functional, organism-based
Homo sapiens [7] = species on record: Homo sapiens; assay: Concentration required to inhibit production of TXB2 from whole blood stimulated with A-23187; type: functional, organism-based
THP-1 [8] = assay: Concentration required to inhibit production of PGE-2 from THP-1 cells stimulated with A-23187; type: functional, cell-based; details: Homo sapiens

COc1ccc2c(c1)c(CC(=O)O)c(C)n2C(=O)c1ccc(Cl)cc1 [INDOMETHACIN]
IC50 (Homo sapiens [1]): 0.26 µM
IC50 (Homo sapiens [2]): > 10 µM
IC50 (THP-1 [3]): > 10 µM
IC50 (Homo sapiens [4]): > 10 µM
IC50 (THP-1 [5]): > 10 µM
IC50 (Homo sapiens [6]): > 10 µM
IC50 (Homo sapiens [7]): 0.36 µM

CCCCC/C=C\C/C=C\C/C=C\C/C=C\CCCC(=O)C(F)(F)F [ARACHIDONYL TRIFLUOROMETHYLKETONE]
IC50 (Homo sapiens [1]): > 10 µM
IC50 (Homo sapiens [2]): > 10 µM
IC50 (THP-1 [3]): 86 µM
IC50 (Homo sapiens [4]): > 10 µM
IC50 (THP-1 [5]): 41 µM
IC50 (Homo sapiens [6]): > 10 µM
IC50 (Homo sapiens [7]): > 10 µM

CCCCC/C=C\C/C=C\C/C=C\C/C=C\CCCC(=O)O [ARACHIDONIC ACID]
IC50 (Homo sapiens [1]): > 10 µM
IC50 (THP-1 [8]): 0.18 µM
IC50 (Homo sapiens [2]): > 10 µM
IC50 (THP-1 [3]): 40 µM
IC50 (Homo sapiens [4]): 0.94 µM
IC50 (THP-1 [5]): 0.0047 µM
IC50 (Homo sapiens [6]): > 10 µM
IC50 (Homo sapiens [7]): > 10 µM

Source: ChEMBL document CHEMBL1134826, “Pyrrolidine inhibitors of human cytosolic phospholipase A2. Part 2: synthesis of potent and crystallized 4-triphenylmethylthio derivative 'pyrrophenone'” (Bioorg Med Chem Lett, 2001)
